Entries after “also recorded” stand apart in the source; their conditions may differ.
What was measured:
estrogen receptor (ER) [1] = molecular target: T1, estrogen receptor (ER) (Homo sapiens, UniProt P03372); experiment: ER-CALUX bioassay, estrogenic (ER-mediated) activity: induction of luciferase in T47D.Luc cells; type: cell-based; settings: for ER-mediated activity (induction of ER-dependent luciferase activity), in words: individual congeners, micromolar concentrations, Figure 2A; for ER-activated activity IEF (induction equivalency factor): ratio between EC50 of E2 and the PCB concentration inducing the same level of luciferase activity
T1 construct: using the human breast carcinoma T47D.Luc cell line, stably transfected with pEREtataLuc construct; host or cells: T47D.Luc (human breast carcinoma, stably transfected with the pEREtataLuc reporter)

estrogen receptor (ER) [2] = molecular target: T1, estrogen receptor (ER); experiment: ER-CALUX bioassay, antiestrogenicity: decrease in response to E2 in co-treated T47D.Luc cells; type: cell-based; settings: for Effect of co-treatment on ER activation by E2, in words: co-treatment with 3 pM E2, Figure 2B; for Effect on E2-induced luciferase activity (antiestrogenicity), in words: 3 pM E2, T47D.Luc cells, Figure 3
Method: (§1) We determined estrogenic activities of 17 prevalent PCB congeners using the ER-CALUX bioassay (BioDetection Systems) using the human breast carcinoma T47D.Luc cell line, stably transfected with pEREtataLuc construct ([Legler et al. 1999]; [Machala et al. 2004]). ER-mediated activity was also determined in the cells treated with either total serum hexane/diethyl ether extracts or with a fraction of POPs obtained by a consequent sulfuric acid/silica fractionation. […] We determined cytotoxicity of extracts or individual PCBs by a neutral red uptake assay after a 24-hr exposure.

T47D.Luc cells = experiment: Neutral red uptake cytotoxicity assay, 24-hr exposure; type: cell-based, human; settings: lowest concentration causing a significant decrease of cell viability; 24-hr exposure Neutral Red uptake
Method: as §1

MCF-7 cells [3] = system: MCF-7 cells; parameters: method as in Arcaro et al. 1999; settings: ref Arcaro et al. 1999; cited from earlier work
rat uterus [4] = system: rat uterus; parameters: method as in Arcaro et al. 1999; settings: ref Arcaro et al. 1999; cited from earlier work
BG1LucE2 cells = system: BG1LucE2 cells; parameters: method as in Rogers and Denison 2000; settings: 10 μM concentrations; ref Rogers and Denison 2000; cited from earlier work
MCF-7 cells [5] = system: MCF-7 cells; parameters: method as in Bonenfeld-Jorgensen et al. 2001; settings: ref Bonenfeld-Jorgensen et al. 2001; cited from earlier work
rat uterus [6] = system: rat uterus; parameters: method as in Li et al. 1994; settings: at very high concentrations; ref Li et al. 1994; cited from earlier work
AhR = molecular target: T2, AhR (Rattus norvegicus, UniProt P41738); experiment: DR-CALUX luciferase reporter gene assay, dioxin-like activity; type: cell-based; settings: data not shown
T2 construct: a luciferase reporter gene assay (DR-CALUX; BioDetection Systems, Amsterdam, the Netherlands) as described previously; rat hepatoma H4IIE.Luc by own knowledge of the DR-CALUX assay
T2 sequence (P41738 10-853): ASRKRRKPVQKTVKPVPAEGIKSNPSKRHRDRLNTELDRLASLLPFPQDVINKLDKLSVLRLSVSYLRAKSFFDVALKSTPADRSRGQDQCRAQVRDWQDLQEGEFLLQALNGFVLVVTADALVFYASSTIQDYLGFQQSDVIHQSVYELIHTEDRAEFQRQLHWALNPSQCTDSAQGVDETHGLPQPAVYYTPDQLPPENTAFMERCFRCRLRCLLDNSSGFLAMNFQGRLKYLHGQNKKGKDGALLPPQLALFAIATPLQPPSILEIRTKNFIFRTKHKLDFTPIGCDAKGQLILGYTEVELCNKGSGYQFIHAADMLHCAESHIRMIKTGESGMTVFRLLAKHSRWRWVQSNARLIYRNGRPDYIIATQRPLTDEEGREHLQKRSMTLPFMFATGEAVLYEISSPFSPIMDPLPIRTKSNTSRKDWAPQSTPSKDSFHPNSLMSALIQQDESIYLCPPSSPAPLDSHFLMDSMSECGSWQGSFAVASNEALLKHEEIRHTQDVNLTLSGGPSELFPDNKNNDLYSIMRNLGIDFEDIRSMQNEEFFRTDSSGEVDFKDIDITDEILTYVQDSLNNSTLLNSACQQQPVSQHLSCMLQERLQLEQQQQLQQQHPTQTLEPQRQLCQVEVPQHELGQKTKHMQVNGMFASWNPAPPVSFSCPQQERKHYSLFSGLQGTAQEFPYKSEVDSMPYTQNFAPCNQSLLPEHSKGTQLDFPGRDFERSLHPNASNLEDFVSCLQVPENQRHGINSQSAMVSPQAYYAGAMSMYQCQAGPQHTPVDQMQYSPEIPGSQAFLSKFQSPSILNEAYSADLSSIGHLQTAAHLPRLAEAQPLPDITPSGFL
Method: We determined the levels of cytochrome P450 (CYP) 1A1 and CYP1B1 mRNA in human peripheral lymphocytes by RNA extraction and a quantitative reverse-transcriptase-polymerase chain reaction (RT-PCR) method using TaqMan technology ([Canton et al. 2003]; [van Duursen et al. 2005]). The in vitro potencies of POPs present in serum to activate AhR were measured in sulfuric acid/silica-treated extracts by a luciferase reporter gene assay (DR-CALUX; BioDetection Systems, Amsterdam, the Netherlands) as described previously ([Murk et al. 1996]).

Structure (SMILES)	ER-mediated activity (induction of ER-dependent luciferase activity), in words (estrogen receptor (ER) [1])	Cytotoxicity LOEC (T47D.Luc cells) [µM]	Effect on E2-induced luciferase activity (antiestrogenicity), in words (estrogen receptor (ER) [2])	other results
Clc1ccc(-c2ccc(Cl)cc2Cl)cc1 [PCB 28, 2,4,4′-Trichlorobiphenyl]	significant ER-mediated activity; also recorded: induced the ER-mediated activity	> 20	–	EC50 (estrogen receptor (ER) [1]): 8.23 µM; Effect of co-treatment on ER activation by E2, in words (estrogen receptor (ER) [2]): potentiated
Clc1ccc(Cl)c(-c2cc(Cl)ccc2Cl)c1 [PCB 52, 2,2′,5,5′-Tetrachlorobiphenyl]	significant ER-mediated activity; also recorded: induced the ER-mediated activity	> 20	–	EC50 (estrogen receptor (ER) [1]): 9.52 µM; Effect of co-treatment on ER activation by E2, in words (estrogen receptor (ER) [2]): potentiated
Clc1cccc(Cl)c1-c1c(Cl)cccc1Cl [PCB 54, 2,2′,6,6′-Tetrachlorobiphenyl]	–	–	–	Estrogenicity in the MCF-7 cell focus assay (MCF-7 cells [3]): estrogenic; Estrogenicity in the rat uterotrophic assay (rat uterus [4]): estrogenic
Clc1ccc(-c2ccc(Cl)c(Cl)c2)c(Cl)c1 [PCB 66, 2,3′,4,4′-Tetrachlorobiphenyl]	significant ER-mediated activity; also recorded: induced the ER-mediated activity	> 40	–	EC50 (estrogen receptor (ER) [1]): 24.3 µM; ER-mediated (estrogenic) activity in BG1LucE2 cells (BG1LucE2 cells): estrogenic
Clc1ccc(-c2cc(Cl)c(Cl)cc2Cl)cc1 [PCB 74, 2,4,4′,5-Tetrachlorobiphenyl]	significant ER-mediated activity; also recorded: induced the ER-mediated activity	> 40	–	EC50 (estrogen receptor (ER) [1]): 17 µM
Clc1ccc(-c2ccc(Cl)c(Cl)c2)cc1Cl [PCB 77, 3,3′,4,4′-tetrachlorobiphenyl]	–	–	–	ER-mediated (estrogenic) activity in BG1LucE2 cells (BG1LucE2 cells): no ER-mediated activity
Clc1ccc(Cl)c(-c2c(Cl)ccc(Cl)c2Cl)c1 [PCB 95, 2,2′,3,5′,6-pentachlorobiphenyl]	–	–	–	ER-mediated (estrogenic) activity in BG1LucE2 cells (BG1LucE2 cells): estrogenic
Clc1ccc(-c2cc(Cl)c(Cl)cc2Cl)c(Cl)c1 [PCB 99, 2,2′,4,4′,5-Pentachlorobiphenyl]	only partial ER agonists; also recorded: induced the ER-mediated activity	> 40	–	ER-activated activity IEC (induction equivalency concentration) (estrogen receptor (ER) [1]): WI (key: NI: no significant induction/inhibition; WI: weak induction/inhibition (< 50% of estradiol maximum induction); ER-activated activity IEF (induction equivalency factor) (estrogen receptor (ER) [1]): WI (weak induction/inhibition (< 50% of estradiol maximum induction)
Clc1ccc(-c2ccc(Cl)c(Cl)c2Cl)cc1Cl [PCB 105, 2,3,3′,4,4′-Pentachlorobiphenyl]	only partial ER agonists; also recorded: induced the ER-mediated activity	> 40	–	ER-activated activity IEC (induction equivalency concentration) (estrogen receptor (ER) [1]): WI (key: NI: no significant induction/inhibition; WI: weak induction/inhibition (< 50% of estradiol maximum induction); ER-activated activity IEF (induction equivalency factor) (estrogen receptor (ER) [1]): WI (weak induction/inhibition (< 50% of estradiol maximum induction)
Clc1ccc(-c2cc(Cl)c(Cl)cc2Cl)cc1Cl [PCB 118, 2,3′,4,4′,5-Pentachlorobiphenyl]	–	> 20	–	–
Clc1ccc(-c2cc(Cl)c(Cl)c(Cl)c2)cc1Cl [PCB 126, 3,3′,4,4′,5-Pentachlorobiphenyl]	–	> 40	not elicited	–
Clc1cc(Cl)c(-c2ccc(Cl)c(Cl)c2Cl)cc1Cl [PCB 138, 2,2′,3,4,4′,5′-Hexachlorobiphenyl]	did not induce	20	significantly decreased	IC50 (estrogen receptor (ER) [2]): 10.1 µM; Antiestrogenic effects in reporter gene and cell proliferation MCF-7 assays (MCF-7 cells [5]): Antiestrogenic effects
Clc1cc(Cl)c(-c2cc(Cl)c(Cl)cc2Cl)cc1Cl [PCB 153, 2,2′,4,4′,5,5′-Hexachlorobiphenyl]	–	20	–	Estrogenicity in the acute 2-day immature rat uterine weight assay (rat uterus [6]): estrogenic; Antiestrogenic effects in reporter gene and cell proliferation MCF-7 assays (MCF-7 cells [5]): Antiestrogenic effects
Clc1ccc(-c2cc(Cl)c(Cl)c(Cl)c2Cl)cc1Cl [PCB 156, 2,3,3′,4,4′,5-Hexachlorobiphenyl]	–	40	–	Antiestrogenicity IhEF (inhibitory equivalency factor) (estrogen receptor (ER) [2]): WI (key: NI: no significant induction/inhibition; WI: weak induction/inhibition (< 50% of estradiol maximum induction; < 50% decrease in induction of 3 pM E2)); Antiestrogenicity IC50 (estrogen receptor (ER) [2]; 50% decrease in luciferase activity induced by 3 pM E2, T47D.Luc cells): WI (weak induction/inhibition (< 50% of estradiol maximum induction; < 50% decrease in induction of 3 pM E2))
Clc1ccc(-c2cc(Cl)c(Cl)c(Cl)c2Cl)c(Cl)c1Cl [PCB 170, 2,2′,3,3′,4,4′,5-Heptachlorobiphenyl]	did not induce	25	significantly decreased	IC50 (estrogen receptor (ER) [2]): 16 µM
Clc1cc(Cl)c(-c2cc(Cl)c(Cl)c(Cl)c2Cl)cc1Cl [PCB 180, 2,2′,3,4,4′,5,5′-Heptachlorobiphenyl]	did not induce	20	significantly decreased	IC50 (estrogen receptor (ER) [2]): 9.32 µM; Antiestrogenic effects in reporter gene and cell proliferation MCF-7 assays (MCF-7 cells [5]): Antiestrogenic effects
Clc1cc(Cl)c(-c2c(Cl)c(Cl)cc(Cl)c2Cl)cc1Cl [PCB 187, 2,2′,3,4′,5,5′,6-Heptachlorobiphenyl]	–	20	–	–
Clc1cc(-c2cc(Cl)c(Cl)c(Cl)c2Cl)c(Cl)c(Cl)c1Cl [PCB 194, 2,2′,3,3′,4,4′,5,5′-Octachlorobiphenyl]	did not induce	25	significantly decreased	IC50 (estrogen receptor (ER) [2]): 14.1 µM
Clc1cc(Cl)c(-c2c(Cl)c(Cl)cc(Cl)c2Cl)c(Cl)c1Cl [PCB 199, 2,2′,3,3′,4′,5,6,6′-Octachlorobiphenyl]	did not induce	20	significantly decreased	IC50 (estrogen receptor (ER) [2]): 2.85 µM
Clc1cc(Cl)c(-c2c(Cl)c(Cl)c(Cl)c(Cl)c2Cl)cc1Cl [PCB 203, 2,2′,3,4,4′,5,5′,6-Octachlorobiphenyl]	did not induce	20	significantly decreased	IC50 (estrogen receptor (ER) [2]): 3.2 µM
ClC(Cl)=C(c1ccc(Cl)cc1)c1ccc(Cl)cc1 [p,p′-DDE]	–	–	–	Estrogenic activity, in words (estrogen receptor (ER) [1]; data not shown): weak estrogenic; Dioxin-like activity, in words (AhR): no dioxin-like activity

Reference: PMC1281266, “Impact of Polychlorinated Biphenyls Contamination on Estrogenic Activity in Human Male Serum” (Environmental Health Perspectives, 2005)
